Measured values: paper PMC5242348, “Triterpene Constituents of Euphorbia Erythradenia Bioss. and their Anti-HIV Activity” (Iranian Journal of Pharmaceutical Research : IJPR, 2016)

How the values were obtained:
[1] = test system: single cycle replicable HIV-1 (SCR HIV-1) virions; settings: ratio of CC50 (Hela, XTT) to IC50 (p24)
[2] = XTT-based cytotoxicity assay; settings: human
[3] = test system: single cycle replicable HIV-1 (SCR HIV-1) virions; assay: microbe, parasite or virus in culture; settings: Human immunodeficiency virus 1, HeLa, 48 h, read-out: Anti HIV activity IC50 (concentration causing 50% HIV activity inhibition)

## C=C(C)C(O)CCC(C)C1CC[C@@]2(C)C3CCC4C(C)(C)[C@@H](O)CC[C@@]45C[C@@]35CC[C@]12C (stereo partly shown) [1a & 1b]
[1]
  Therapeutic index TI (CC50/IC50): 4.67
[2]; HeLa cells
  CC50 at 3 days: 14 nM
[3]
  IC50: 3 nM

## CC(C/C=C\C(C)(C)O)C1CC[C@@]2(C)C3CCC4C(C)(C)[C@@H](O)CC[C@@]45C[C@@]35CC[C@]12C (stereo partly drawn) [Compound 2, Cycloart-23-ene-3β,25-diol]
[1]
  Therapeutic index TI (CC50/IC50): 3.67
[2]; HeLa cells
  CC50 at 3 days: 22 nM
[3]
  IC50: 6 nM

## CC1(C)CC[C@]2(C(=O)O)CC[C@]3(C)C(=CC[C@@H]4[C@@]5(C)CC[C@H](O)C(C)(C)[C@@H]5CC[C@]43C)[C@@H]2C1 [Compound 4, Oleanolic acid]
[1]
  Therapeutic index TI (CC50/IC50): 2.44
[2]
  CC50 at 3 days: 22 nM
[3]
  IC50: 9 nM

## CC=C(C)C(=O)OC1C(COC(=O)c2cccnc2)C(O)C2C(=O)C3(CC(C)C(OC(=O)CCC)C13)C(C)(O)CC1(OC(C)=O)C2C1(C)C (stereo not shown) [Compound 5, 13-acetyl-3-butanoyl-5-angeloyl-20-nicotinyl-1,2,6,7-tetrahydroingenol]
[1]
  Therapeutic index TI (CC50/IC50): 0.11
[2]
  CC50 at 3 days: 4 nM
[3]
  IC50: 36 nM

## CC=C(C)C(=O)OC1C(COC(=O)c2cccnc2)C(OC(C)=O)C2C(=O)C3(CC(C)C(OC(=O)CC)C13)C(C)(O)CC1(OC(C)=O)C2C1(C)C (stereo not shown) [Compound 6, 7,13-diacetyl-5-angeloyl-20-nicotinyl-3-propionyl-1,2,6,7-tetrahydroingenol]
[1]
  Therapeutic index TI (CC50/IC50): 11.75
[2]
  CC50 at 3 days: 84 nM
[3]
  IC50: 7 nM

## CCC(=O)OC1C(C)CC23C(=O)C(C(OC(=O)c4ccccc4)C(COC(=O)c4cccnc4)C(OC(C)=O)C12)C1C(C)(C)C1(OC(C)=O)CC3(C)O (stereo not shown) [Compound 7, 5,13-diacetyl-7-benzoyl-20-nicotinyl-3-propionyl-1,2,6,7-tetrahydroingenol]
[2]
  CC50 at 3 days: 3260 nM
[3]
  IC50: 8 nM

## CC=C(C)C(=O)OC1C(CO)C(O)C2C(=O)C3(CC(C)C(OC(=O)CCC)C13)C(C)(OC(=O)c1cccnc1)CC1(OC(C)=O)C2C1(C)C (stereo not shown) [Compound 8, 13-acetyl-5-angeloyl-11-nicotinyl-3-butanoyl-1,2,6,7-tetrahydroingenol]
[2]
  CC50 at 3 days: 168 nM
[3]
  IC50: 44 nM

## Cc1ccnc2c1NC(=O)c1cccnc1N2C1CC1 [Nevirapine, reference compound]
[1]
  Therapeutic index TI (CC50/IC50): > 105.31
[2]
  CC50 at 3 days: 6740 nM
[3]
  IC50: < 64 nM
